Key:
Assay in all cases: relative viability (nuclei count vs DMSO), 5 days (fraction); higher = more cells survive
[1] = compound: CS(=O)(=O)CCNCc1ccc(-c2ccc3ncnc(Nc4ccc(OCc5cccc(F)c5)c(Cl)c4)c3c2)o1 [Lapatinib] + CC1(C)CCC(c2ccc(Cl)cc2)=C(CN2CCN(c3ccc(C(=O)NS(=O)(=O)c4ccc(N[C@H](CCN5CCOCC5)CSc5ccccc5)c(S(=O)(=O)C(F)(F)F)c4)cc3)CC2)C1 [Navitoclax] (partner 0.5 µM)
In short: (§1)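 Relative viability equals treated-well nuclei counts divided by vehicle-well nuclei counts. Counts came from 4× images of lung cancer cell lines grown in 1536-well plates for 5 days after pin-tool dosing on the day after seeding. Dosing used one drug alone or a fixed anchor-drug dose plus five library-drug doses (not always all listed) in √10 steps, and values are medians of duplicate plates.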

[2] = compound: CC1=NC=CC(=C1)C2=CC=C(C=C2)CC(=O)NC3=CC=C(C=C3)C4=CN=CC=C4 [Wnt-C59] + CC(=O)Nc1cccc(-n2c(=O)n(C3CC3)c(=O)c3c(Nc4ccc(I)cc4F)n(C)c(=O)c(C)c32)c1 [Trametinib] (partner 0.02 µM)
In short: as §1

[3] = compound: CC1=NC=CC(=C1)C2=CC=C(C=C2)CC(=O)NC3=CC=C(C=C3)C4=CN=CC=C4 [Wnt-C59] + N=C(N)NC(=N)NCCc1ccccc1 [Phenformin] (partner 250 µM)
In short: as §1

[4] = compound: CC1=NC=CC(=C1)C2=CC=C(C=C2)CC(=O)NC3=CC=C(C=C3)C4=CN=CC=C4 [Wnt-C59] + CC(=O)c1c(C)c2cnc(Nc3ccc(N4CCNCC4)cn3)nc2n(C2CCCC2)c1=O [Palbociclib] (partner 0.5 µM)
In short: as §1

Cell Line | relative viability ([1]; first compound 0.02 µM) | relative viability ([1]; first compound 0.06325 µM) | relative viability ([1]; first compound 0.2 µM) | relative viability ([1]; first compound 0.6325 µM) | relative viability ([1]; first compound 2 µM) | relative viability ([2]; first compound 0.001 µM) | relative viability ([2]; first compound 0.01 µM) | relative viability ([2]; first compound 0.03162 µM) | relative viability ([2]; first compound 0.1 µM) | relative viability ([3]; first compound 0.001 µM) | relative viability ([3]; first compound 0.01 µM) | relative viability ([3]; first compound 0.03162 µM) | relative viability ([3]; first compound 0.1 µM) | relative viability ([4]; first compound 0.001 µM) | relative viability ([4]; first compound 0.01 µM) | relative viability ([4]; first compound 0.03162 µM) | relative viability ([4]; first compound 0.1 µM)
HOP-62 | 0.672 | 0.993 | 1.09 | 1.1 | 0.99 | 0.347 | 0.366 | 0.352 | 0.347 | 0.771 | 0.603 | 0.662 | 0.607 | 0.468 | 0.403 | 0.49 | 0.493
LCLC-103H | – | – | – | – | – | 0.716 | 0.667 | 0.667 | 0.713 | 0.352 | 0.334 | 0.366 | 0.329 | 0.462 | 0.509 | 0.487 | 0.472
Calu-6 | 0.844 | 0.812 | 0.91 | 0.819 | 0.764 | – | – | – | – | – | – | – | – | – | – | – | –
NCI-H1650 | 1.06 | 1.11 | 1.24 | 1.01 | 0.761 | 0.642 | 0.716 | 0.684 | 0.774 | 0.449 | 0.483 | 0.454 | 0.391 | 0.341 | 0.321 | 0.318 | 0.378
NCI-H1703 | 0.908 | 0.943 | 1.03 | 1.33 | 0.996 | – | – | – | – | – | – | – | – | – | – | – | –
LK-2 | 0.908 | – | 0.84 | 0.88 | 0.905 | 0.767 | 0.869 | 0.713 | 0.817 | 0.479 | 0.379 | 0.481 | 0.321 | 0.524 | 0.739 | 0.705 | 0.535
LCLC-97TM1 | – | – | 0.355 | 0.327 | 0.33 | 0.216 | 0.201 | 0.22 | 0.193 | 0.397 | 0.425 | 0.475 | 0.429 | 0.254 | 0.228 | 0.216 | 0.248
NCI-H1793 | – | – | – | 0.329 | 0.292 | 0.495 | 0.408 | 0.385 | 0.425 | 0.34 | – | 0.397 | 0.362 | 0.296 | 0.259 | 0.355 | 0.321
SW 900 | – | – | – | – | – | 0.809 | 0.745 | 0.793 | 0.6 | 0.633 | 0.607 | 0.555 | 0.574 | 0.48 | 0.461 | 0.608 | 0.54
SK-MES-1 | 1.13 | – | 1.25 | 0.783 | 0.573 | 0.61 | 0.556 | 0.511 | 0.518 | 0.673 | 0.69 | 0.694 | 0.695 | 0.29 | 0.321 | 0.316 | 0.339
NCI-H2023 | 0.95 | 0.885 | 0.894 | 1 | 0.77 | 0.608 | 0.579 | 0.679 | 0.543 | 0.406 | 0.415 | 0.419 | 0.35 | 0.389 | 0.4 | 0.399 | 0.371
NCI-H1792 | 0.615 | 0.589 | 0.52 | 0.586 | 0.645 | 0.395 | 0.348 | 0.526 | 0.352 | 0.363 | 0.301 | – | 0.22 | 0.673 | 0.655 | 0.672 | 0.656
NCI-H661 | – | – | – | – | – | 0.567 | 0.559 | 0.593 | 0.631 | 0.292 | 0.311 | 0.27 | 0.288 | 0.409 | 0.357 | 0.436 | 0.387
NCI-H1915 | – | 0.822 | 0.752 | 0.79 | 0.81 | 0.302 | 0.304 | 0.346 | 0.31 | 0.362 | 0.392 | 0.385 | 0.367 | 0.516 | 0.521 | 0.473 | 0.572
EPLC-272H | – | 1.13 | 0.869 | 0.991 | 0.961 | 0.275 | 0.277 | 0.316 | 0.298 | 0.297 | 0.303 | 0.335 | 0.335 | 0.306 | 0.277 | 0.352 | 0.316
ChaGo-K-1 | – | 1.15 | 0.781 | 0.99 | 0.457 | 0.845 | 0.875 | 0.96 | 0.841 | 0.557 | 0.466 | 0.531 | 0.539 | 0.97 | 0.885 | 0.953 | 0.957
NCI-H3122 | 1.01 | 1 | 1.01 | 0.968 | 1.01 | 0.18 | 0.243 | 0.207 | 0.218 | 0.369 | 0.366 | 0.36 | 0.362 | 0.183 | 0.201 | 0.22 | 0.186
IA-LM | 0.769 | 0.794 | 0.817 | 0.728 | 0.713 | – | – | – | – | – | – | – | – | – | – | – | –
EMC-BAC-2 | 1.05 | 0.984 | 1.09 | 1.02 | 0.968 | 0.797 | 0.697 | 0.793 | 0.713 | 0.533 | 0.484 | 0.525 | 0.505 | 0.496 | 0.437 | 0.438 | 0.413
NCI-H522 | – | – | – | – | – | 0.786 | 0.741 | 0.829 | 0.752 | 0.614 | 0.599 | 0.601 | 0.64 | 0.912 | 1.04 | 1.15 | 0.892
NCI-H1734 | – | 0.691 | 0.802 | 0.88 | 0.778 | 0.675 | 0.744 | 0.77 | 0.632 | 0.389 | 0.356 | 0.478 | 0.354 | 0.382 | 0.334 | 0.36 | 0.364
LC-2-ad | – | 0.415 | 0.446 | 0.394 | 0.264 | 0.904 | 0.874 | 0.905 | 0.9 | 0.68 | 0.546 | 0.659 | 0.545 | 0.484 | 0.509 | 0.536 | 0.505

From the supplement of paper PMC10307832
